Like-named read-outs stand apart in the source and are kept apart here.
Key:
[1] = system: Akt phosphorylated at Ser473 in PC-3 cells; assay: Cellular assay: phosphorylation of Akt at Ser473 in PC-3 cells (MSD ELISA); format: cell-based; settings: PC-3 cells, 60 min compound incubation, MSD ELISA, read-out: IC50 pAkt_S473
Method in brief: (§1)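 PC-3 cells were exposed to compound or 0.3% DMSO for 60 min at 37° C, 5% CO2, then lysed in ice-cold buffer. Phospho-Akt was captured on site-specific antibody-coated plates and detected with Sulfo-tag anti-total Akt by electrochemiluminescence. IC50 values came from five-concentration response curves.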

PI3Kβ = molecular target: T1, PI3Kβ (Homo sapiens, UniProt P42338); assay: Enzyme binding assay (KINOMEscan, DiscoveRx); settings: PIK3Cβ_h, read-out: Kd PIK3Cβ_h
T1 construct: purchased DiscoveRx Corporation, San Diego (contract service, KINOMEscan)
Method in brief: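 Using the KINOMEscan format, the enzyme binding affinity of each compound was determined. Each value is the inhibitor binding constant, Kd (nM).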

kinase enzymes [2] = molecular target: T2, kinase enzymes (Homo sapiens, UniProt P42336); assay: Enzyme binding assay (KINOMEscan, DiscoveRx), further kinases of Table A; settings: PIK3Cα_h
T2 construct: purchased DiscoveRx Corporation, San Diego (contract service, KINOMEscan)
Method in brief: (§2)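 Uses KINOMEscan technology to determine binding affinity toward the kinase enzymes.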

kinase enzymes [3] = molecular target: T3, kinase enzymes (Homo sapiens, UniProt P48736); assay: as above; settings: PIK3Cγ_h
T3 construct: purchased DiscoveRx Corporation, San Diego (contract service, KINOMEscan)
Method in brief: as §2

kinase enzymes [4] = molecular target: T4, kinase enzymes (Homo sapiens, UniProt P42345); assay: as above; settings: MTOR_h
T4 construct: purchased DiscoveRx Corporation, San Diego (contract service, KINOMEscan)
Method in brief: as §2

PI3Kδ = molecular target: T5, PI3Kδ (Homo sapiens, UniProt O00329); assay: Enzyme binding assay (KINOMEscan, DiscoveRx); settings: PIK3Cδ_h
T5 construct: purchased DiscoveRx Corporation, San Diego (contract service, KINOMEscan)
T5 sequence (O00329 1-1044): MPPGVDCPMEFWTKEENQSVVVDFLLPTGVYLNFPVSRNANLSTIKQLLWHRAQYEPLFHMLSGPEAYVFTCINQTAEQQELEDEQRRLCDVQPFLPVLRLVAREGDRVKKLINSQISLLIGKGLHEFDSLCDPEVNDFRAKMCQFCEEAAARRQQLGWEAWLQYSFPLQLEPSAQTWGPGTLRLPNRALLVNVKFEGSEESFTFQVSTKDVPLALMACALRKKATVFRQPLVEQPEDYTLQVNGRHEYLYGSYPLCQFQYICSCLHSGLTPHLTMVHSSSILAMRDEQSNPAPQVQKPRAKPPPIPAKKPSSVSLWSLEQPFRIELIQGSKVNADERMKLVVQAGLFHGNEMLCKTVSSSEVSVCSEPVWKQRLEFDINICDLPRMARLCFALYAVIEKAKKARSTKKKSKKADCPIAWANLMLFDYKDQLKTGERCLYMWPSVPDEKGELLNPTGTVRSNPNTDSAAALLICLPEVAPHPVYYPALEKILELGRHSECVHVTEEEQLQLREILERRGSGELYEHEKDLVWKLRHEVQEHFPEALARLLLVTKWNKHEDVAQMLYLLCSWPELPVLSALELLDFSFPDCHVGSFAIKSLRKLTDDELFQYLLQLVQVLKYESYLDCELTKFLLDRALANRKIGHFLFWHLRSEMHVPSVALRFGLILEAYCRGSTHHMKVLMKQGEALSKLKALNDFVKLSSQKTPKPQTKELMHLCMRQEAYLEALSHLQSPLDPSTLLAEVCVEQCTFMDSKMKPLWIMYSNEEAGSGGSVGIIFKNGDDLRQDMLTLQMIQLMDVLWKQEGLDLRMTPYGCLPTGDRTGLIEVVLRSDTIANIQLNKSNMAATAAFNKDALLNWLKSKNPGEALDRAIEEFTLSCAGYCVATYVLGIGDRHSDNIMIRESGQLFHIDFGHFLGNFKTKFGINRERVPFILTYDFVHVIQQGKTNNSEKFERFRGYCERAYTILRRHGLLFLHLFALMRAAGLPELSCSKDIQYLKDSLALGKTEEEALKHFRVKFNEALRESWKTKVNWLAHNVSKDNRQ
Method in brief: as §2

[5] = system: Akt phosphorylated at Thr308 in PC-3 cells; assay: Cellular assay: phosphorylation of Akt at Thr308 in PC-3 cells (MSD ELISA); format: cell-based; settings: PC-3 cells, 60 min compound incubation, MSD ELISA, read-out: IC50 pAkt_Thr308
Method in brief: as §1

T1 sequence (P42338 whole entry): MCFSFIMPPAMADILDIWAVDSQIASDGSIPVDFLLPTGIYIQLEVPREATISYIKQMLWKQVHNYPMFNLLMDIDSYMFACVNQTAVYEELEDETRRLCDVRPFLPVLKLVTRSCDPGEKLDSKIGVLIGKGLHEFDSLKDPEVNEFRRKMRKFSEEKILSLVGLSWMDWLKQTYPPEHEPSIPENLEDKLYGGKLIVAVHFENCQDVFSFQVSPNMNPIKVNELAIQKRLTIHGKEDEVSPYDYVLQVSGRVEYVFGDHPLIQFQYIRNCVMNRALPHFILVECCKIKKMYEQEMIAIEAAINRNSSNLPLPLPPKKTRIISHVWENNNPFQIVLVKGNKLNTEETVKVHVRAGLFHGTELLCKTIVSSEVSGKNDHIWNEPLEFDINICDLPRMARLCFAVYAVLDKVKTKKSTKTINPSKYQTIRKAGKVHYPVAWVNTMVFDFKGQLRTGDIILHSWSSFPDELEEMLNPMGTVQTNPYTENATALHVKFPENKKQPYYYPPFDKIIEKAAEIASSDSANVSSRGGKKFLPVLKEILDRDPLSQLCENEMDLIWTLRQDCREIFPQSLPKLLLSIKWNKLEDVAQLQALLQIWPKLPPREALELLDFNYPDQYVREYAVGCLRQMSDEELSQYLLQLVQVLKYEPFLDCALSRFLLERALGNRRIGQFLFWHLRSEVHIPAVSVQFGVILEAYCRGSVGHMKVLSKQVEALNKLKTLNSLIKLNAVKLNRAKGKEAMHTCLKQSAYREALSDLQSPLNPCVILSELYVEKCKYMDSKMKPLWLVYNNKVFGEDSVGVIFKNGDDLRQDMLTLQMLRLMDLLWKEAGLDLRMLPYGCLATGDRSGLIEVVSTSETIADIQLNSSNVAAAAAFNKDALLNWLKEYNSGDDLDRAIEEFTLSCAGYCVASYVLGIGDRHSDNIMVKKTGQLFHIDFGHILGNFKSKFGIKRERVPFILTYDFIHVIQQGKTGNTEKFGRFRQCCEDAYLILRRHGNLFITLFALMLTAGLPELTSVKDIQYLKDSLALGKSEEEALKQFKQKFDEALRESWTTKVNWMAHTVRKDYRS
T2 sequence (P42336 whole entry): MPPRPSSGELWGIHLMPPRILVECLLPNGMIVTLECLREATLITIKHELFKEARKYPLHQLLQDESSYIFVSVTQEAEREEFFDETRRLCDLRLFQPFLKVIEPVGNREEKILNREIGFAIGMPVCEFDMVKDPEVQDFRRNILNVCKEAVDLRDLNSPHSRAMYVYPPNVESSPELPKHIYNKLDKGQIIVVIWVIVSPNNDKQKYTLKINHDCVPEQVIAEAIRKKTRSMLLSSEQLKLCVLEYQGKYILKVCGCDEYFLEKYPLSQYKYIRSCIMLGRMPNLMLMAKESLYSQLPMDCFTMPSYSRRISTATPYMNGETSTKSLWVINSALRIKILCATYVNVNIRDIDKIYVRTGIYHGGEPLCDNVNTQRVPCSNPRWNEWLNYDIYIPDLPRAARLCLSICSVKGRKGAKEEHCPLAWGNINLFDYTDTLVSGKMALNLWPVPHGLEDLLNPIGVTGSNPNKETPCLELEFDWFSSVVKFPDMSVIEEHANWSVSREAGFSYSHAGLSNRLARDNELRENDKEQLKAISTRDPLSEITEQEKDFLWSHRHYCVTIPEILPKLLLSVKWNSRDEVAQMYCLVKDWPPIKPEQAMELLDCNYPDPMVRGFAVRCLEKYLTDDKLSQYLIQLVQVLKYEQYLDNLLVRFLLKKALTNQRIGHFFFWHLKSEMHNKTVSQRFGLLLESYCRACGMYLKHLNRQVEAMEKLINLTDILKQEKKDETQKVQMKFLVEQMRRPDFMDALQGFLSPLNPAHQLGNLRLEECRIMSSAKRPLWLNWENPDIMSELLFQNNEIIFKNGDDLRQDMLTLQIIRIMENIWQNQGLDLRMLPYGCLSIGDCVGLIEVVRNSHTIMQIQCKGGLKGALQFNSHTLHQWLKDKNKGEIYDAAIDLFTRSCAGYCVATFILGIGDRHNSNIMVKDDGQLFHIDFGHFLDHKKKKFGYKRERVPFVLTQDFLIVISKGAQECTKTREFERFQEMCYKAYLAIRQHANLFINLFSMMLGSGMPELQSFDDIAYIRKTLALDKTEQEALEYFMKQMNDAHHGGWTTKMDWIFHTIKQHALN
T3 sequence (P48736 whole entry): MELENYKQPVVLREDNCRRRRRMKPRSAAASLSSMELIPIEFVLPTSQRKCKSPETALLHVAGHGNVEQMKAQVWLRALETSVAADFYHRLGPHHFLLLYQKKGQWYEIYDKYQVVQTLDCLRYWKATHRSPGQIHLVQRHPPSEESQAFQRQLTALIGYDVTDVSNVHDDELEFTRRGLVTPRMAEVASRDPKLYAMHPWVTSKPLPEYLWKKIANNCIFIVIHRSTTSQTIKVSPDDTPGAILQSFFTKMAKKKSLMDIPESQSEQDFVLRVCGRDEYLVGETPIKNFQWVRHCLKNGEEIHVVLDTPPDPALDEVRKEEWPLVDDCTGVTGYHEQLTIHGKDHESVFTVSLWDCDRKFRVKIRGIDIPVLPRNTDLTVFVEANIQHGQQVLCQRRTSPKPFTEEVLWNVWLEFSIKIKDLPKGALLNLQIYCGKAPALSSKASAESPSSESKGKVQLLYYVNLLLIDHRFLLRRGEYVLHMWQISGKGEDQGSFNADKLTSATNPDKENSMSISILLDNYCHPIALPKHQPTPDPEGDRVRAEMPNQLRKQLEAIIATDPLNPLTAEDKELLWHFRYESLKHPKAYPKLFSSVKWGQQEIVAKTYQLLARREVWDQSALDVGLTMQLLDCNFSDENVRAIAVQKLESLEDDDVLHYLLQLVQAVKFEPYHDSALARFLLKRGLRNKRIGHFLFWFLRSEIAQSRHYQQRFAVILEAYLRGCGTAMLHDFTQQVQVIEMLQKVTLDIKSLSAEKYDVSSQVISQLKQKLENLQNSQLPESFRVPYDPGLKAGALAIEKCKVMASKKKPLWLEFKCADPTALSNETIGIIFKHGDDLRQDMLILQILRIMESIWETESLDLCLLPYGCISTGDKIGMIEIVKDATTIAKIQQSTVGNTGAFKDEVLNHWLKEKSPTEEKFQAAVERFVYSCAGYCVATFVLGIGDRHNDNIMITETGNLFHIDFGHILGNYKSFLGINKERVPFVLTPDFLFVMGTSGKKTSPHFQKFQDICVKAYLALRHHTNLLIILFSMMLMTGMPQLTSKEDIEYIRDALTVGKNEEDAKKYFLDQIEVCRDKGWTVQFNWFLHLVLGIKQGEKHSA

## COC1CN(Cc2cc(C(C)Nc3cc(F)cc(F)c3)c3nc(N4CCOCC4)cnc3c2)CC1OC (single isomer, unassigned) [Compound 205]
[1]; Homo sapiens, PC-3, 1 h
  IC50: > 513 nM
PI3Kβ
  Kd: 204 nM
Kinase enzymes [2]
  Kd: > 30200 nM
Kinase enzymes [3]
  Kd: > 30200 nM
Kinase enzymes [4]
  Kd: > 30200 nM
PI3Kδ
  Kd: 17400 nM
[5]
  IC50: > 513 nM

## COC1CN(Cc2cc(C(C)Nc3cc(F)cc(F)c3)c3nc(N4CCOCC4)cnc3c2)CC1OC (single isomer, unassigned) [Compound 207]
[1]
  IC50: 372 nM
PI3Kβ
  Kd: 6 nM
Kinase enzymes [2]
  Kd: 5250 nM
Kinase enzymes [3]
  Kd: 16200 nM
Kinase enzymes [4]
  Kd: 7940 nM
PI3Kδ
  Kd: 891 nM
[5]
  IC50: 105 nM

## CC(Nc1cc(F)cc(F)c1)c1cc(CN2C[C@@H](C)O[C@@H](C)C2)cc2ncc(N3CCOCC3)nc12 (single isomer, unassigned) [Compound 208]
[1]
  IC50: 186 nM
PI3Kβ
  Kd: 8 nM
Kinase enzymes [2]
  Kd: 3470 nM
Kinase enzymes [3]
  Kd: > 30200 nM
Kinase enzymes [4]
  Kd: > 30200 nM
PI3Kδ
  Kd: 1410 nM
[5]
  IC50: 83 nM

## CC(Nc1cc(F)c(F)c(F)c1)c1cc(C(=O)NCCO)cc2ncc(N3CCOCC3)nc12 (single isomer, unassigned) [Compound 214]
[1]
  IC50: > 513 nM
PI3Kβ
  Kd: 1230 nM
Kinase enzymes [2]
  Kd: > 30200 nM
Kinase enzymes [3]
  Kd: 4570 nM
Kinase enzymes [4]
  Kd: > 30200 nM
PI3Kδ
  Kd: > 30200 nM
[5]
  IC50: > 513 nM

## CC(Nc1cc(F)cc(F)c1)c1cc(C(=O)NS(=O)(=O)C2CC2)cc2ncc(N3CCOCC3)nc12 (single isomer, unassigned) [Compound 219]
[1]; Homo sapiens, PC-3, 1 h
  IC50: > 513 nM
PI3Kβ
  Kd: 1 nM
Kinase enzymes [2]
  Kd: 93 nM
Kinase enzymes [3]
  Kd: 955 nM
Kinase enzymes [4]
  Kd: 3310 nM
PI3Kδ
  Kd: 275 nM
[5]; Homo sapiens, PC-3, 1 h
  IC50: > 513 nM

## CC(Nc1cc(F)cc(F)c1)c1cc(C(=O)NS(=O)(=O)C2CC2)cc2ncc(N3CCOCC3)nc12 (single isomer, unassigned) [Compound 220]
[1]
  IC50: > 513 nM
PI3Kβ
  Kd: 2750 nM
Kinase enzymes [2]
  Kd: 25700 nM
Kinase enzymes [3]
  Kd: 25700 nM
Kinase enzymes [4]
  Kd: 6460 nM
PI3Kδ
  Kd: > 30200 nM
[5]
  IC50: > 513 nM

## CC(C)NCCNC(=O)c1cc(C(C)Nc2cccc(F)c2)c2nc(N3CCOCC3)cnc2c1 (single isomer, unassigned) [Compound 228]
[1]
  IC50: > 513 nM
PI3Kβ
  Kd: 603 nM
Kinase enzymes [2]
  Kd: 6170 nM
Kinase enzymes [3]
  Kd: 4070 nM
Kinase enzymes [4]
  Kd: > 30200 nM
PI3Kδ
  Kd: 15500 nM
[5]
  IC50: 347 nM

## CC(Nc1cc(F)cc(F)c1)c1cc(C(=O)N2CCNC(C(F)(F)F)C2)cc2ncc(N3CCOCC3)nc12 (single isomer, unassigned) [Compound 237b]
[1]
  IC50: > 513 nM
PI3Kβ
  Kd: 74 nM
Kinase enzymes [2]
  Kd: 8710 nM
Kinase enzymes [3]
  Kd: > 30200 nM
Kinase enzymes [4]
  Kd: > 30200 nM
PI3Kδ
  Kd: 7760 nM
[5]
  IC50: > 513 nM

## CC(Nc1cc(F)cc(F)c1)c1cc(C(=O)N2CCNC(C(F)(F)F)C2)cc2ncc(N3CCOCC3)nc12 (single isomer, unassigned) [Compound 237c]
[1]
  IC50: 26 nM
PI3Kβ
  Kd: 4 nM
Kinase enzymes [2]
  Kd: 372 nM
Kinase enzymes [3]
  Kd: 5490 nM
Kinase enzymes [4]
  Kd: > 30200 nM
PI3Kδ
  Kd: 234 nM
[5]
  IC50: 11 nM

## CC(Nc1cc(F)cc(F)c1)c1cc(C(=O)N2CCNC(C(F)(F)F)C2)cc2ncc(N3CCOCC3)nc12 (single isomer, unassigned) [Compound 237d]
[1]
  IC50: > 513 nM
PI3Kβ
  Kd: 240 nM
Kinase enzymes [2]
  Kd: 12600 nM
Kinase enzymes [3]
  Kd: > 30200 nM
Kinase enzymes [4]
  Kd: > 30200 nM
PI3Kδ
  Kd: 19500 nM
[5]
  IC50: > 513 nM

## O=C(NCCO)c1cc(N2CCCC2c2cc(F)cc(F)c2)c2nc(N3CCOCC3)cnc2c1 (single isomer, unassigned) [Compound 244]
[1]; Homo sapiens, PC-3, 1 h
  IC50: > 513 nM
PI3Kβ
  Kd: 741 nM
Kinase enzymes [2]
  Kd: 8320 nM
Kinase enzymes [3]
  Kd: 12600 nM
Kinase enzymes [4]
  Kd: 20000 nM
PI3Kδ
  Kd: 4170 nM
[5]; Homo sapiens, PC-3, 1 h
  IC50: > 513 nM

## O=C(NCCO)c1cc(N2CCCC2c2cc(F)cc(F)c2)c2nc(N3CCOCC3)cnc2c1 (single isomer, unassigned) [Compound 245]
[1]
  IC50: > 513 nM
PI3Kβ
  Kd: 72 nM
Kinase enzymes [2]
  Kd: 8710 nM
Kinase enzymes [3]
  Kd: 13200 nM
Kinase enzymes [4]
  Kd: 21900 nM
PI3Kδ
  Kd: 1050 nM
[5]
  IC50: > 513 nM

Reference: US10526316B2, “Quinoxaline and pyridopyrazine derivatives as PI3Kβ inhibitors” (Janssen Pharmaceutica NV, priority 2015, dated 2020)
